Measurements as given in patent US9617219B2, “Polymorphs of 3-difluoromethyl-1-methyl-1 H-pyrazole-4-carboxylic acid (9-dichloro-methylene-1,2,3,4-tetrahydro-1,4-methano-naphthalen-5-yl)-amide” (Syngenta Participations AG, priority 2014, dated 2017).
Each block holds one compound with its values, some of them ahead of it.

Experiments:
[1] = Stability of suspension concentrate formulation of anhydrous Form 1 contaminated with 5% hydrated form, temperature cycling; assay type: physicochemical; conditions: SC of anhydrous Form 1 with 5% hydrated form, cycling 0° C. to 40° C. over 12 hours, after two weeks
Procedure: Two standard suspension concentrate (SC) formulations were separately prepared using the anhydrous Form 1 polymorph and the hydrated polymorph. The SC of the anhydrous Form 1 was contaminated with 5% of the hydrated form and placed in a temperature cycling oven varying from 0° C. to 40° C. over 12 hours. After two weeks, the sample was inspected. […] Some crystals were removed from the formulation and dried.

[2] = Competitive slurries of anhydrous Form 1 and hydrate in water/methanol mixtures, stable form determined by DSC; assay type: physicochemical; parameters: key to stable crystal form: A indicates the anhydrous form is the stable form; H indicates the hydrate is the stable form; U data was inconclusive
Procedure: DSC was carried out using a Mettler Toledo DSC 820 or DSC1. A sample loading of around 5 mg was used and this was heated from 40° C. to 250° C. at a rate of 10° C./minute on the DSC820 or from 25° C. to 250° C. at a rate of 10° C./minute on the DSC1. The lid of the DSC crucible was pierced to allow the escape of any gas formed during the heating of the sample. The thermodynamic stability of hydrated crystals depends not only on temperature but also on the abundance of water, or more precisely, the water activity (aw), which is equivalent to the relative humidity. In order to determine under which conditions the anhydrous polymorph Form 1 and the hydrate are stable, a series of competitive slurries containing both crystal forms were prepared in different water/methanol mixtures and at a range of temperatures. The resulting crystals were analysed by DSC to determine the stable form under the given conditions. […] From the data above, the water/methanol compositions were converted into water activities and a phase diagram was constructed.

polymorphic conversion (powder X-ray diffraction) [1]: fully converted to the hydrated form | size of the crystals (microscopy) [1]: increased substantially
Compound: Cn1cc(C(=O)Nc2cccc3c2C2CCC3C2=C(Cl)Cl)c(C(F)F)n1 (stereo not drawn) [anhydrous polymorph Form 1, 3-difluoromethyl-1-methyl-1H-pyrazole-4-carboxylic acid (9-dichloromethylene-1,2,3,4-tetrahydro-1,4-methano-naphthalen-5-yl)-amide]

temperature required to dehydrate the hydrate ([2]; normal ambient relative humidities, from phase diagram (FIG. 3)): > 60 °C
Compound: Cn1cc(C(=O)Nc2cccc3c2C2CCC3C2=C(Cl)Cl)c(C(F)F)n1 (stereo not drawn) [hydrate of compound (I), 3-difluoromethyl-1-methyl-1H-pyrazole-4-carboxylic acid (9-dichloromethylene-1,2,3,4-tetrahydro-1,4-methano-naphthalen-5-yl)-amide]

stable crystal form ([2]; 1% water in methanol, 5 °C): A | stable crystal form ([2]; 1% water in methanol, 20 °C): A | stable crystal form ([2]; 1% water in methanol, 35 °C): A | stable crystal form ([2]; 1% water in methanol, 40 °C): A | stable crystal form ([2]; 1% water in methanol, 45 °C): A | stable crystal form ([2]; 1% water in methanol, 60 °C): A | stable crystal form ([2]; 5% water in methanol, 5 °C): A | stable crystal form ([2]; 5% water in methanol, 20 °C): A | stable crystal form ([2]; 5% water in methanol, 35 °C): A | stable crystal form ([2]; 5% water in methanol, 40 °C): A | stable crystal form ([2]; 5% water in methanol, 45 °C): A | stable crystal form ([2]; 5% water in methanol, 60 °C): A | stable crystal form ([2]; 7.5% water in methanol, 5 °C): H | stable crystal form ([2]; 7.5% water in methanol, 15 °C): H | stable crystal form ([2]; 10% water in methanol, 5 °C): H | stable crystal form ([2]; 10% water in methanol, 15 °C): H | stable crystal form ([2]; 10% water in methanol, 20 °C): U | stable crystal form ([2]; 10% water in methanol, 30 °C): U | stable crystal form ([2]; 10% water in methanol, 35 °C): A | stable crystal form ([2]; 10% water in methanol, 40 °C): A | stable crystal form ([2]; 10% water in methanol, 45 °C): A | stable crystal form ([2]; 10% water in methanol, 60 °C): A | stable crystal form ([2]; 12.5% water in methanol, 5 °C): H | stable crystal form ([2]; 15% water in methanol, 5 °C): H | stable crystal form ([2]; 15% water in methanol, 15 °C): H | stable crystal form ([2]; 15% water in methanol, 50 °C): H | stable crystal form ([2]; 15% water in methanol, 60 °C): A | stable crystal form ([2]; 20% water in methanol, 20 °C): H | stable crystal form ([2]; 20% water in methanol, 30 °C): H | stable crystal form ([2]; 20% water in methanol, 35 °C): H | stable crystal form ([2]; 20% water in methanol, 40 °C): H | stable crystal form ([2]; 20% water in methanol, 45 °C): H | stable crystal form ([2]; 20% water in methanol, 60 °C): H | stable crystal form ([2]; 25% water in methanol, 50 °C): H | stable crystal form ([2]; 25% water in methanol, 60 °C): H | stable crystal form ([2]; 35% water in methanol, 60 °C): H
Compound: Cn1cc(C(=O)Nc2cccc3c2C2CCC3C2=C(Cl)Cl)c(C(F)F)n1 (racemic) [compound of formula (I), 3-difluoromethyl-1-methyl-1H-pyrazole-4-carboxylic acid (9-dichloromethylene-1,2,3,4-tetrahydro-1,4-methano-naphthalen-5-yl)-amide]
